Numbers after ± are expanded uncertainties.
Test: molar heat capacity at constant pressure; xn = mol fraction of the nth substance listed
Conditions: Liquid, Flow calorimetry

CO [methanol] + O
Conditions	molar heat capacity at constant pressure [J/K/mol]
329.01 K, 5000 kPa, x1 = 0.9	88.91 ± 0.55
330.62 K, 10000 kPa, x1 = 0.8	89.87 ± 0.56
330.92 K, 5000 kPa, x1 = 0.8	90.19 ± 0.56
330.98 K, 2000 kPa, x1 = 0.8	89.81 ± 0.56
331.74 K, 5000 kPa, x1 = 0.1	82.22 ± 0.5
332.15 K, 5000 kPa, x1 = 0.7	90.68 ± 0.56
333.12 K, 10000 kPa, x1 = 0.6	90 ± 0.56
333.19 K, 5000 kPa, x1 = 0.6	90.87 ± 0.56
333.43 K, 5000 kPa, x1 = 0.2	86.68 ± 0.54
333.48 K, 10000 kPa, x1 = 0.2	86.18 ± 0.54
333.52 K, 2000 kPa, x1 = 0.6	90.9 ± 0.56
333.71 K, 2000 kPa, x1 = 0.2	86.86 ± 0.54
333.89 K, 5000 kPa, x1 = 0.5	90.43 ± 0.55
333.95 K, 5000 kPa, x1 = 0.4	89.97 ± 0.57
334 K, 5000 kPa, x1 = 0.3	88.54 ± 0.56
334.08 K, 10000 kPa, x1 = 0.4	89.57 ± 0.54
334.13 K, 2000 kPa, x1 = 0.4	90.16 ± 0.57
352.61 K, 5000 kPa, x1 = 0.9	95.17 ± 0.58
354.08 K, 5000 kPa, x1 = 0.8	95.72 ± 0.58
354.53 K, 5000 kPa, x1 = 0.1	82.78 ± 0.5
355.25 K, 5000 kPa, x1 = 0.7	96.11 ± 0.58
355.71 K, 5000 kPa, x1 = 0.6	95.6 ± 0.58
355.86 K, 5000 kPa, x1 = 0.5	94.46 ± 0.58
355.92 K, 5000 kPa, x1 = 0.2	87.32 ± 0.54
356.11 K, 5000 kPa, x1 = 0.4	92.66 ± 0.57
356.17 K, 5000 kPa, x1 = 0.3	90.87 ± 0.56
376.69 K, 5000 kPa, x1 = 0.9	102.61 ± 0.64
377.42 K, 5000 kPa, x1 = 0.8	102.59 ± 0.64
377.92 K, 5000 kPa, x1 = 0.1	83.23 ± 0.52
377.99 K, 5000 kPa, x1 = 0.7	101.84 ± 0.64
378.34 K, 5000 kPa, x1 = 0.6	100.47 ± 0.63
378.47 K, 5000 kPa, x1 = 0.5	98.56 ± 0.6
378.64 K, 5000 kPa, x1 = 0.4	96.44 ± 0.59
378.77 K, 5000 kPa, x1 = 0.3	92.83 ± 0.58
378.78 K, 5000 kPa, x1 = 0.2	88.72 ± 0.54
424.2 K, 5000 kPa, x1 = 0.5	107.27 ± 0.65
424.22 K, 5000 kPa, x1 = 0.4	102.77 ± 0.64
424.24 K, 5000 kPa, x1 = 0.7	114.48 ± 0.7
424.36 K, 10000 kPa, x1 = 0.4	101.14 ± 0.61
424.4 K, 2000 kPa, x1 = 0.4	102.94 ± 0.64
424.42 K, 2000 kPa, x1 = 0.6	111.49 ± 0.69
424.47 K, 5000 kPa, x1 = 0.6	111.25 ± 0.69
424.53 K, 10000 kPa, x1 = 0.6	108.79 ± 0.69
424.54 K, 5000 kPa, x1 = 0.8	118.06 ± 0.73
424.59 K, 2000 kPa, x1 = 0.8	118.73 ± 0.73
424.59 K, 10000 kPa, x1 = 0.8	118.7 ± 0.73
424.7 K, 10000 kPa, x1 = 0.2	91.26 ± 0.56
424.77 K, 2000 kPa, x1 = 0.2	92.01 ± 0.56
424.89 K, 5000 kPa, x1 = 0.9	121.27 ± 0.74
424.97 K, 5000 kPa, x1 = 0.3	97.58 ± 0.6
425.05 K, 5000 kPa, x1 = 0.2	91.9 ± 0.56
425.68 K, 5000 kPa, x1 = 0.1	85.15 ± 0.52
437.16 K, 8500 kPa, x1 = 0.6	124.31 ± 0.77
471.84 K, 10000 kPa, x1 = 0.6	122.64 ± 0.77
471.87 K, 10000 kPa, x1 = 0.4	110.24 ± 0.69
472.32 K, 5000 kPa, x1 = 0.4	111.75 ± 0.69
472.41 K, 8500 kPa, x1 = 0.4	110.52 ± 0.69
472.56 K, 5000 kPa, x1 = 0.5	119.44 ± 0.73
472.78 K, 8500 kPa, x1 = 0.2	96.55 ± 0.6
472.91 K, 5000 kPa, x1 = 0.3	104.69 ± 0.64
472.98 K, 5000 kPa, x1 = 0.6	127.9 ± 0.79
473.11 K, 5000 kPa, x1 = 0.7	135.08 ± 0.84
473.16 K, 5000 kPa, x1 = 0.8	143 ± 0.88
473.21 K, 10000 kPa, x1 = 0.8	135.8 ± 0.85
473.53 K, 10000 kPa, x1 = 0.2	96.73 ± 0.6
473.95 K, 5000 kPa, x1 = 0.9	153.78 ± 0.95
474.26 K, 5000 kPa, x1 = 0.2	96.84 ± 0.6
474.27 K, 5000 kPa, x1 = 0.1	89.79 ± 0.56
474.92 K, 8500 kPa, x1 = 0.8	138.52 ± 0.85
497 K, 10000 kPa, x1 = 0.2	100.23 ± 0.62
497 K, 10000 kPa, x1 = 0.4	117.78 ± 0.73
497.3 K, 8500 kPa, x1 = 0.3	109.45 ± 0.67
497.56 K, 8500 kPa, x1 = 0.4	118.93 ± 0.73
497.97 K, 8500 kPa, x1 = 0.2	101.63 ± 0.62
498.08 K, 8500 kPa, x1 = 0.5	128.47 ± 0.8
498.33 K, 8500 kPa, x1 = 0.6	139.08 ± 0.87
498.46 K, 10000 kPa, x1 = 0.6	136.33 ± 0.85
499.19 K, 8500 kPa, x1 = 0.1	92.18 ± 0.56
499.79 K, 8500 kPa, x1 = 0.8	166.33 ± 1
499.83 K, 10000 kPa, x1 = 0.8	159.51 ± 0.99
499.85 K, 8500 kPa, x1 = 0.7	152.5 ± 0.95
500.37 K, 8500 kPa, x1 = 0.9	185.8 ± 1.2
507.38 K, 10000 kPa, x1 = 0.2	104.52 ± 0.65
507.6 K, 10000 kPa, x1 = 0.4	122.36 ± 0.76
508.54 K, 10000 kPa, x1 = 0.6	145.98 ± 0.9
508.68 K, 8500 kPa, x1 = 0.1	95.38 ± 0.58
508.96 K, 8500 kPa, x1 = 0.2	103.83 ± 0.65
509.5 K, 10000 kPa, x1 = 0.8	178.64 ± 1.1
509.58 K, 8500 kPa, x1 = 0.4	124.67 ± 0.78
510.29 K, 8500 kPa, x1 = 0.5	137.86 ± 0.85
510.32 K, 8500 kPa, x1 = 0.3	114.54 ± 0.71
511.09 K, 8500 kPa, x1 = 0.8	204.86 ± 1.3
511.15 K, 8500 kPa, x1 = 0.7	175.97 ± 1.1
511.4 K, 8500 kPa, x1 = 0.6	155.15 ± 0.95
511.68 K, 8500 kPa, x1 = 0.9	268 ± 2
513.62 K, 10000 kPa, x1 = 0.5	138.48 ± 0.85
514.03 K, 10000 kPa, x1 = 0.4	126.54 ± 0.78
514.03 K, 10000 kPa, x1 = 0.6	154.89 ± 0.95
514.08 K, 10000 kPa, x1 = 0.3	115.36 ± 0.71
514.53 K, 10000 kPa, x1 = 0.1	95.01 ± 0.58
514.91 K, 10000 kPa, x1 = 0.2	105.19 ± 0.65
514.98 K, 10000 kPa, x1 = 0.9	229.95 ± 2.4
515.2 K, 10000 kPa, x1 = 0.8	198.37 ± 1.4
515.25 K, 10000 kPa, x1 = 0.7	174.88 ± 1.1
515.73 K, 8500 kPa, x1 = 0.1	95.69 ± 0.58
516.4 K, 8500 kPa, x1 = 0.9	508.52 ± 3.5
517.62 K, 8500 kPa, x1 = 0.2	106.77 ± 0.67
517.97 K, 8500 kPa, x1 = 0.3	119.14 ± 0.73
518.82 K, 8500 kPa, x1 = 0.8	303.27 ± 2
519.33 K, 8500 kPa, x1 = 0.4	133.94 ± 0.83
519.69 K, 8500 kPa, x1 = 0.7	212.23 ± 1.3
520.61 K, 8500 kPa, x1 = 0.5	150.12 ± 0.93
522.42 K, 8500 kPa, x1 = 0.6	186.76 ± 1.2
